# Experimental data as given in patent publication US12558386B2, “Methods and compositions to modulate antibiotic resistance and gastrointestinal microbiota” (OHIO STATE INNOVATION FOUNDATION, priority 2018, dated 2026).
# Tests used:
# fecal microbiota = test: Chicken study, probiotics and ESBL E. coli followed by oral or injected Amp (FIG. 6); format: in vivo, chickens; conditions: Group 7 and Group 5, with or without ESBL E. coli inoculation
# From the text: FIGS. 6A and 6B show probiotics and ESBL inoculation on the profiles of poultry fecal microbiota followed by oral or injective antibiotic treatment. FIG. 6A) Phylum level; FIG. 6B) Class level. Group 1: probiotic cocktail treatment throughout, E coli exposure from Day 5 for 4 days and then oral Amp; Group 2: probiotic/peanut butter treatment throughout followed by E coli exposure and then oral Amp; Group 3: inoculated (E coli) then exposed to oral Amp, Group 4: noninoculated then exposed to oral Amp, Group 5: noninoculated then exposed to injective Amp, Group 6: noninoculated then exposed to saline; Group 7: inoculated (E coli) then exposed to injective Amp.
# It was recognized that even if antibiotic resistant bacteria may be reduced by probiotic treatment, some of those resistant bacteria seeds might still retain in the microbiota, and could pop up again when exposed to antibiotics. Therefore in another set of the experiment, following probiotic and ESBL E. coli exposure, the chickens were further treated with Amp by oral or muscle injection. […] But Probiotic treated chickens (Group 1 &2) retained more Firmicutes or Cynobacteria than chickens without probiotic treatment (Group 3 with inoculated ESBL E. coli & Group 4 natural flora, with one outlier). […]
# Three Amp^r E. coli = test: MIC assessment, summary for the three strains; format: cell-based, Escherichia coli; conditions: E. coli CA-1, CA-4 and CA-20 together
# Procedure: Bacterial strains. Multiple Amp^r strains from feces of broiler chickens without antibiotic treatment were recovered on Columbia blood Agar base (Becton, […] Dickinson and Company, Franklin Lakes, NJ) supplemented with 5% defibrinated sheep blood (Thermo Scientific™, Grand Island, NY). The strains were maintained in Columbia broth (Becton Dickinson and Company, Franklin Lakes, NJ), and propagated by aerobic growth at 37° C., and further subjected to strain identification and Minimum Inhibition Concentration (MIC) assessments.
# Minimum inhibition concertation (MIC) assessment. A TREK Sensititre diagnostic system (Thermo scientific, Oakwood Village, OH, USA) was used to assess the AR phenotype and MIC of isolated strains. Protocols to use this system can be found on www.trekds.com. Cation-adjusted Mueller Hinton Broth (Becton, Dickinson and Company, MD, USA) was used as basic medium.
# 16S rRNA gene pool = test: Chicken model, qPCR of fecal DNA; format: in vivo, Leghorn chicken; conditions: Lc = Lc-Amp group, Amp = Saline-Amp group
# From the text: (§1) The chicken model. All procedures were approved by the Institutional Animal Care and Use Committee (protocol No. 2012A00000061, The Ohio State University, Columbus, OH). Leghorn chicken were hatched and maintained at the Ohio Agricultural Research and Development Center (OARDC) poultry research teaching farm (two birds per cage with separate feed and water supply, controlled temperature, filtered air in the room and sterilized feed). Chicken fecal samples were collected on-site and examined for the presence of blaCMY-2 gene pools and microbial profile. Beginning on Day 5 post-hatch, chicken were inoculated with a blaCMY-2^+ E. coli cocktail (0.2 mL/bird, 10^6 CFU/mL) every 24 hours for 4 consecutive days via gavage feeding using 20 ga×1.5 inch animal feeding needle (Fine Science Tools, Foster City, CA, USA). Chickens in non-inoculated control groups were fed with 0.2 mL of saline by the same method. Chickens were then set in cages for 11 days before antibiotic treatment, allowing the microbiota to stabilize.
# (§2) Lactobacillus crispatus and antibiotic administration. Lactobacillus crispatus CG-12 was susceptible to ampicillin. To monitor the impact of CG-12 on AR profiles during common ampicillin administration practice, low veterinary Amp dosages (30 mg/kg body weight per day) were selected instead of 300 mg/kg/day. Lactobacillus crispatus CG-12 was administrated in three periods: 1) Day 2 to Day 4 post-hatch; 2) throughout the stabilization; and 3) post-antibiotic challenge on Day 25 to Day 28. During these periods, chickens were inoculated with a Lactobacillus crispatus CG-12 suspension (0.2 mL/bird, 10^6 CFU/mL) every 24 hours for 4 consecutive days via gavage feeding using 20 ga×1.5 inch animal feeding needle (Fine Science Tools, Foster City, CA, USA). Each group contained at least 6 chickens.
# (§3) Sample collection. Fresh feces were collected from each chicken on-site in the rearing facility. Fecal samples were collected at the 1st and last day of Lactobacillus inoculation, once a day during the antibiotic administration period, and once every three days during antibiotic withdrawal period up to 14 days from initial antibiotic exposure.
# (§4) DNA extraction. Total DNA from chicken fecal samples for real-time quantitative PCR (qPCR) and denaturing gradient gel electrophoresis (DGGE) analyses were extracted according to a published method (Yu and Morrison 2004).
# (§5) Real-time quantitative PCR. TaqMan real-time PCR protocol was used to assess blaCMY-2 and 16S rRNA gene pools in total DNA extracted from chicken fecal samples, as described previously (Zhang et al., 2013). […] Each sample was assessed and analyzed in duplicates on a CFX96 system (Bio-Rad, Hercules, CA, USA).
# blaCMY-2 gene pool = test: Chicken model, qPCR of fecal DNA; format: in vivo, Leghorn chicken; conditions: Lc = Lc-Amp group, Amp = Saline-Amp group
# From the text: as §1, §2, §3, §4, §5
# [1] = test system: Amp^r (ESBL) Escherichia coli strains M9-1, M9-4, M9-12 and 933-36; test: MIC of the Amp^r marker strains (previously identified); format: cell-based; conditions: antibiotic not given
# CG-12 = test: Screening of antibiotic susceptible commensal strains on antibiotic agar plates; format: cell-based, Lactobacillus crispatus; conditions: 16 μg/mL tetracycline, 100 μg/mL erythromycin, 32 μg/mL ampicillin, 152 μg/mL sulfamethoxazole with 8 μg/mL trimethoprim
# Procedure: Multiple commensal bacterial strains from chicken feces were recovered from Columbia blood Agar base (Becton, […] Dickinson and Company, Franklin Lakes, NJ) supplemented with 5% defibrinated sheep blood (Thermo Scientific™, Grand Island, NY), and maintained in Columbia broth (Becton Dickinson and Company, Franklin Lakes, NJ) and propagated by anaerobic growth at 37° C. The strains were subjected to antibiotic susceptibility assessment followed by strain identification.
# Screening of antibiotic susceptible commensal strains. Recovered commensal strain isolates (over 1000 colonies) were spotted on Columbia broth (Becton, […] Dickinson and Company, Franklin Lakes, NJ) agar plates containing each of the four antibiotics for rapid assessment of phenotypic resistance profiles. Screened antibiotics included 16 μg/mL tetracycline (Sigma-Aldrich, St. Louis, MO, USA), 100 μg/mL erythromycin (Fisher Scientific, Waltham, MA, USA), 32 μg/mL ampicillin (Sigma-Aldrich), and 152 μg/mL sulfamethoxazole (Sigma-Aldrich) with 8 μg/mL trimethoprim (Sigma-Aldrich).
# [2] = Day 21, during oral Amp 30 mg/kg/day
smiles,measurement,setting,value
"CC1(C)S[C@@H]2[C@H](NC(=O)[C@H](N)c3ccccc3)C(=O)N2[C@H]1C(=O)O [AMP, ampicillin]","retention of Firmicutes, injection versus oral",fecal microbiota,significant difference in retaining Firmicutes
same,"resistance phenotype from MIC, in words",Three Amp^r E. coli,high resistance
same,16S rRNA gene pool,16S rRNA gene pool; [2],8.5±0.7 log10 (gene copies/g)
same,16S rRNA gene pool,"16S rRNA gene pool; Day 25, after Amp treatment",10.5±1.0 log10 (gene copies/g)
same,blaCMY-2 gene pool,blaCMY-2 gene pool; [2],8.7±0.8 log10 (gene copies/g)
same,blaCMY-2 gene pool,"blaCMY-2 gene pool; Day 25, after Amp treatment",9.8±0.9 log10 (gene copies/g)
same,MIC,[1],> 256 µg/mL
same,phenotypic susceptibility on antibiotic agar plates,CG-12,susceptible
